This is an account of results in patent publication US11557737B2, “Compound, coating composition comprising same, organic light-emitting element using same, and manufacturing method therefor” (LG Chem, Ltd., priority 2018, dated 2023).

The nature of the data set: Solubility measurement (compound dissolved in solvent, left 1 day, precipitate checked by Tyndall effect). It counts as physicochemical. The conditions noted are these: dissolved in a solvent, left to stand for 1 day, laser / Tyndall effect. The protocol:
In the present specification, the “solubility” means a property in which a solute is dissolved in a specific solvent, and may be denoted as a g value of the solute that may be dissolved in 100 g of the solvent at a predetermined temperature.
The method of measuring the solubility is as follows. First, after a compound was dissolved in a solvent, the resulting solution was left to stand for 1 day. Thereafter, by passing a laser through the solution, it was observed whether a precipitate was formed through the Tyndall effect, and the solubility was measured.
As for `C[Si](C)(C)c1ccc(N(c2ccccc2)c2ccc3ccc4c(N(c5ccccc5)c5ccc([Si](C)(C)C)cc5)ccc5ccc2c3c54)cc1` [Compound C], the Solubility worked out at 0.1 wt %.

As to `C[Si](C)(C)c1ccc(-c2ccc(N(c3ccc4ccc5c(N(c6ccc(-c7ccc([Si](C)(C)C)cc7)cc6)c6cccc7c6oc6ccccc67)ccc6ccc3c4c65)c3cccc4c3oc3ccccc34)cc2)cc1` [Compound D], the Solubility was 0.05 wt %.

In the case of `c1ccc([Si](c2ccccc2)(c2ccccc2)c2ccc(-c3ccc(N(c4ccc(-c5cccc6c5oc5ccccc56)cc4)c4cc5ccc6cccc7ccc(c4)c5c67)cc3)cc2)cc1` [Compound E], the Solubility worked out at 2 wt %. As for `c1ccc([Si](c2ccccc2)(c2ccccc2)c2ccc(-c3ccc(N(c4ccc(-c5ccc6c(c5)oc5ccccc56)cc4)c4cc5ccc6cccc7ccc(c4)c5c67)cc3)cc2)cc1` [Compound F], the Solubility is reported as 2 wt %.
